# Measured values taken from ChEMBL document CHEMBL1201861, “Genomics of Drug Sensitity in Cancer screening data, Wellcome Trust Sanger Institute”.
# Tested on: NB12;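 further: growth inhibition of human NB12 cells, read out by a cell viability assay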
# Assay: cells
# Assay type: functional, cell-based
# Settings: Homo sapiens
row,Structure (SMILES),IC50 [µM]
1,CC1=C(/C=C/C(C)=C/C=C/C(C)=C/C(=O)O)C(C)(C)CCC1 [TRETINOIN],> 10

# Tested on: NCI-H1666;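 further: growth inhibition of the cell line, read out with a cell viability assay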
# Assay: cells
# Assay type: functional, cell-based
# Settings: Homo sapiens
# Description: SANGER: Inhibition of human NCI-H1666 cell growth in a cell viability assay.
row,Structure (SMILES),IC50 [µM]
1,CC1=C(/C=C/C(C)=C/C=C/C(C)=C/C(=O)O)C(C)(C)CCC1 [TRETINOIN],> 10

# Tested on: LCLC-97TM1;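 further: cell viability assay measuring growth inhibition of human LCLC-97TM1 cells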
# Assay: cells
# Assay type: functional, cell-based
# Settings: Homo sapiens
# Description: SANGER: Inhibition of human LCLC-97TM1 cell growth in a cell viability assay.
row,Structure (SMILES),IC50 [µM]
1,CC1=C(/C=C/C(C)=C/C=C/C(C)=C/C(=O)O)C(C)(C)CCC1 [TRETINOIN],> 10

# Tested on: Detroit 562;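 further: growth inhibition of human Detroit 562 cells, read out by a cell viability assay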
# Assay: cells
# Assay type: functional, cell-based
# Settings: Homo sapiens
# Description: SANGER: Inhibition of human Detroit562 cell growth in a cell viability assay.
row,Structure (SMILES),IC50 [µM]
1,CC1=C(/C=C/C(C)=C/C=C/C(C)=C/C(=O)O)C(C)(C)CCC1 [TRETINOIN],> 10

# Tested on: TGBC11TKB;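 further: growth inhibition of human TGBC11TKB cells, measured by a cell viability assay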
# Assay: cells
# Assay type: functional, cell-based
# Settings: Homo sapiens
# Description: SANGER: Inhibition of human TGBC11TKB cell growth in a cell viability assay.
row,Structure (SMILES),IC50 [µM]
1,CC1=C(/C=C/C(C)=C/C=C/C(C)=C/C(=O)O)C(C)(C)CCC1 [TRETINOIN],> 10

# Tested on: COR-L23;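 further: cell viability assay measuring how strongly compounds suppress growth of COR-L23 cells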
# Assay: cells
# Assay type: functional, cell-based
# Settings: Homo sapiens
# Description: SANGER: Inhibition of human COR-L23 cell growth in a cell viability assay.
row,Structure (SMILES),IC50 [µM]
1,CC1=C(/C=C/C(C)=C/C=C/C(C)=C/C(=O)O)C(C)(C)CCC1 [TRETINOIN],> 10

# Tested on: EW-24;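 further: human EW-24 cancer cell line, growth inhibition read out via a cell viability assay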
# Assay: cells
# Assay type: functional, cell-based, Homo sapiens
# Settings: Homo sapiens, EW-24
# Description: SANGER: Inhibition of human EW-24 cell growth in a cell viability assay.
row,Structure (SMILES),IC50 [µM]
1,CC1=C(/C=C/C(C)=C/C=C/C(C)=C/C(=O)O)C(C)(C)CCC1 [TRETINOIN],> 10

# Tested on: COLO-741
# Assay: cells
# Assay type: functional, cell-based
# Settings: Homo sapiens
# Description: SANGER: Inhibition of human COLO-741 cell growth in a cell viability assay.
row,Structure (SMILES),IC50 [µM]
1,CC1=C(/C=C/C(C)=C/C=C/C(C)=C/C(=O)O)C(C)(C)CCC1 [TRETINOIN],> 10

# Tested on: LoVo;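 further: growth inhibition of human LoVo cells, read out with a cell viability assay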
# Assay: cells
# Assay type: functional, cell-based
# Settings: Homo sapiens
# Description: SANGER: Inhibition of human LoVo cell growth in a cell viability assay.
row,Structure (SMILES),IC50 [µM]
1,CC1=C(/C=C/C(C)=C/C=C/C(C)=C/C(=O)O)C(C)(C)CCC1 [TRETINOIN],> 10

# Tested on: PC-14;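 further: cell viability assay measuring inhibition of PC-14 cell growth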
# Assay: cells
# Assay type: functional, cell-based
# Settings: Homo sapiens
# Description: SANGER: Inhibition of human PC-14 cell growth in a cell viability assay.
row,Structure (SMILES),IC50 [µM]
1,CC1=C(/C=C/C(C)=C/C=C/C(C)=C/C(=O)O)C(C)(C)CCC1 [TRETINOIN],> 10

# Tested on: D-392MG
# Assay: cells
# Assay type: functional, cell-based
# Settings: Homo sapiens
row,Structure (SMILES),IC50 [µM]
1,CC1=C(/C=C/C(C)=C/C=C/C(C)=C/C(=O)O)C(C)(C)CCC1 [TRETINOIN],> 10

# Tested on: RERF-LC-MS;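 further: growth inhibition of human RERF-LC-MS cells, read out by a cell viability assay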
# Assay: cells
# Assay type: functional, cell-based
# Settings: Homo sapiens
# Description: SANGER: Inhibition of human RERF-LC-MS cell growth in a cell viability assay.
row,Structure (SMILES),IC50 [µM]
1,CC1=C(/C=C/C(C)=C/C=C/C(C)=C/C(=O)O)C(C)(C)CCC1 [TRETINOIN],> 10

# Tested on: CFPAC-1;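 further: cell viability readout used to gauge suppression of CFPAC-1 cell proliferation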
# Assay: cells
# Assay type: functional, cell-based
# Settings: Homo sapiens
# Description: SANGER: Inhibition of human CFPAC-1 cell growth in a cell viability assay.
row,Structure (SMILES),IC50 [µM]
1,CC1=C(/C=C/C(C)=C/C=C/C(C)=C/C(=O)O)C(C)(C)CCC1 [TRETINOIN],> 10

# Tested on: BEN;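 further: growth inhibition of the BEN cell line, read out with a cell viability assay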
# Assay: cells
# Assay type: functional, cell-based
# Settings: Homo sapiens
# Description: SANGER: Inhibition of human BEN cell growth in a cell viability assay.
row,Structure (SMILES),IC50 [µM]
1,CC1=C(/C=C/C(C)=C/C=C/C(C)=C/C(=O)O)C(C)(C)CCC1 [TRETINOIN],> 10

# Tested on: NCI-H2291
# Assay: cells
# Assay type: functional, cell-based
# Settings: Homo sapiens
# Description: SANGER: Inhibition of human NCI-H2291 cell growth in a cell viability assay.
row,Structure (SMILES),IC50 [µM]
1,CC1=C(/C=C/C(C)=C/C=C/C(C)=C/C(=O)O)C(C)(C)CCC1 [TRETINOIN],> 10

# Tested on: HMV-2 cell line;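 further: growth inhibition of HMV-II cells, read out with a cell viability assay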
# Assay: cells
# Assay type: functional, cell-based
# Settings: Homo sapiens
# Description: SANGER: Inhibition of human HMV-II cell growth in a cell viability assay.
row,Structure (SMILES),IC50 [µM]
1,CC1=C(/C=C/C(C)=C/C=C/C(C)=C/C(=O)O)C(C)(C)CCC1 [TRETINOIN],> 10

# Tested on: TCC-SUP;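 further: growth inhibition of TCC-SUP cells, read out with a cell viability assay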
# Assay: cells
# Assay type: functional, cell-based
# Settings: Homo sapiens
# Description: SANGER: Inhibition of human TCCSUP cell growth in a cell viability assay.
row,Structure (SMILES),IC50 [µM]
1,CC1=C(/C=C/C(C)=C/C=C/C(C)=C/C(=O)O)C(C)(C)CCC1 [TRETINOIN],> 10

# Tested on: CHP-212
# Assay: cells
# Assay type: functional, cell-based
# Settings: Homo sapiens
# Description: SANGER: Inhibition of human CHP-212 cell growth in a cell viability assay.
row,Structure (SMILES),IC50 [µM]
1,CC1=C(/C=C/C(C)=C/C=C/C(C)=C/C(=O)O)C(C)(C)CCC1 [TRETINOIN],> 10

# Tested on: EFO-21;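 further: growth inhibition of EFO-21 cells measured with a viability assay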
# Assay: cells
# Assay type: functional, cell-based
# Settings: Homo sapiens
# Description: SANGER: Inhibition of human EFO-21 cell growth in a cell viability assay.
row,Structure (SMILES),IC50 [µM]
1,CC1=C(/C=C/C(C)=C/C=C/C(C)=C/C(=O)O)C(C)(C)CCC1 [TRETINOIN],> 10

# Tested on: NCI-H1792;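 further: growth inhibition of human NCI-H1792 cells, read out as cell viability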
# Assay: cells
# Assay type: functional, cell-based
# Settings: Homo sapiens
# Description: SANGER: Inhibition of human NCI-H1792 cell growth in a cell viability assay.
row,Structure (SMILES),IC50 [µM]
1,CC1=C(/C=C/C(C)=C/C=C/C(C)=C/C(=O)O)C(C)(C)CCC1 [TRETINOIN],> 10

# Tested on: RH-18;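 further: growth inhibition of human RH-18 cells, read out with a cell viability assay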
# Assay: cells
# Assay type: functional, cell-based
# Settings: Homo sapiens, Rh18
# Description: SANGER: Inhibition of human RH-18 cell growth in a cell viability assay.
row,Structure (SMILES),IC50 [µM]
1,CC1=C(/C=C/C(C)=C/C=C/C(C)=C/C(=O)O)C(C)(C)CCC1 [TRETINOIN],> 10

# Tested on: SCC-9;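 further: Read-out is a cell viability assay, with values giving inhibition of cell growth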
# Assay: cells
# Assay type: functional, cell-based
# Settings: Homo sapiens
# Description: SANGER: Inhibition of human SCC-9 cell growth in a cell viability assay.
row,Structure (SMILES),IC50 [µM]
1,CC1=C(/C=C/C(C)=C/C=C/C(C)=C/C(=O)O)C(C)(C)CCC1 [TRETINOIN],> 10

# Tested on: SW-620;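 further: growth inhibition of human SW-620 cells, measured by a cell viability assay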
# Assay: cells
# Assay type: functional, cell-based
# Settings: Homo sapiens
# Description: SANGER: Inhibition of human SW620 cell growth in a cell viability assay.
row,Structure (SMILES),IC50 [µM]
1,CC1=C(/C=C/C(C)=C/C=C/C(C)=C/C(=O)O)C(C)(C)CCC1 [TRETINOIN],> 10

# Tested on: SK-MEL3;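 further: growth inhibition of human SK-MEL-3 cells, read out with a cell viability assay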
# Assay: cells
# Assay type: functional, cell-based, SK-MEL-3
# Settings: Homo sapiens
# Description: SANGER: Inhibition of human SK-MEL-3 cell growth in a cell viability assay.
row,Structure (SMILES),IC50 [µM]
1,CC1=C(/C=C/C(C)=C/C=C/C(C)=C/C(=O)O)C(C)(C)CCC1 [TRETINOIN],> 10

# Tested on: NCI-H1693;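 further: growth inhibition of the human cell line, read out with a cell viability assay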
# Assay: cells
# Assay type: functional, cell-based
# Settings: Homo sapiens
# Description: SANGER: Inhibition of human NCI-H1693 cell growth in a cell viability assay.
row,Structure (SMILES),IC50 [µM]
1,CC1=C(/C=C/C(C)=C/C=C/C(C)=C/C(=O)O)C(C)(C)CCC1 [TRETINOIN],> 10

# Tested on: BFTC-905
# Assay: cells
# Assay type: functional, cell-based
# Settings: Homo sapiens
# Description: SANGER: Inhibition of human BFTC-905 cell growth in a cell viability assay.
row,Structure (SMILES),IC50 [µM]
1,CC1=C(/C=C/C(C)=C/C=C/C(C)=C/C(=O)O)C(C)(C)CCC1 [TRETINOIN],> 10

# Tested on: SNU-387
# Assay: cells
# Assay type: functional, cell-based
# Settings: Homo sapiens
# Description: SANGER: Inhibition of human SNU-387 cell growth in a cell viability assay.
row,Structure (SMILES),IC50 [µM]
1,CC1=C(/C=C/C(C)=C/C=C/C(C)=C/C(=O)O)C(C)(C)CCC1 [TRETINOIN],> 10

# Tested on: UACC-893
# Assay: cells
# Assay type: functional, cell-based
# Settings: Homo sapiens
# Description: SANGER: Inhibition of human UACC-893 cell growth in a cell viability assay.
row,Structure (SMILES),IC50 [µM]
1,CC1=C(/C=C/C(C)=C/C=C/C(C)=C/C(=O)O)C(C)(C)CCC1 [TRETINOIN],> 10

# Tested on: OAW-42;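 further: growth inhibition of OAW-42 cells, read out with a cell viability assay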
# Assay: cells
# Assay type: functional, cell-based
# Settings: Homo sapiens
# Description: SANGER: Inhibition of human OAW-42 cell growth in a cell viability assay.
row,Structure (SMILES),IC50 [µM]
1,CC1=C(/C=C/C(C)=C/C=C/C(C)=C/C(=O)O)C(C)(C)CCC1 [TRETINOIN],> 10

# Tested on: D-542MG
# Assay: cells
# Assay type: functional, cell-based
# Settings: Homo sapiens
# Description: SANGER: Inhibition of human D-542MG cell growth in a cell viability assay.
row,Structure (SMILES),IC50 [µM]
1,CC1=C(/C=C/C(C)=C/C=C/C(C)=C/C(=O)O)C(C)(C)CCC1 [TRETINOIN],> 10

# Tested on: NBsusSR;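 further: growth inhibition of the human cell line, read out with a cell viability assay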
# Assay: cells
# Assay type: functional, cell-based
# Settings: Homo sapiens
# Description: SANGER: Inhibition of human NBsusSR cell growth in a cell viability assay.
row,Structure (SMILES),IC50 [µM]
1,CC1=C(/C=C/C(C)=C/C=C/C(C)=C/C(=O)O)C(C)(C)CCC1 [TRETINOIN],1.45

# Tested on: NCI-H358;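 further: growth inhibition of NCI-H358 human cells, read out with a cell viability assay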
# Assay: cells
# Assay type: functional, cell-based
# Settings: Homo sapiens
# Description: SANGER: Inhibition of human NCI-H358 cell growth in a cell viability assay.
row,Structure (SMILES),IC50 [µM]
1,CC1=C(/C=C/C(C)=C/C=C/C(C)=C/C(=O)O)C(C)(C)CCC1 [TRETINOIN],> 10

# Tested on: ECC10;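 further: growth inhibition of ECC10 cells, read out by a cell viability assay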
# Assay: cells
# Assay type: functional, cell-based
# Settings: Homo sapiens
# Description: SANGER: Inhibition of human ECC10 cell growth in a cell viability assay.
row,Structure (SMILES),IC50 [µM]
1,CC1=C(/C=C/C(C)=C/C=C/C(C)=C/C(=O)O)C(C)(C)CCC1 [TRETINOIN],2.38

# Tested on: NCI-H727;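 further: growth inhibition of human NCI-H727 cells, read out with a cell viability assay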
# Assay: cells
# Assay type: functional, cell-based
# Settings: Homo sapiens
# Description: SANGER: Inhibition of human NCI-H727 cell growth in a cell viability assay.
row,Structure (SMILES),IC50 [µM]
1,CC1=C(/C=C/C(C)=C/C=C/C(C)=C/C(=O)O)C(C)(C)CCC1 [TRETINOIN],> 10

# Tested on: OVCAR-3;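 further: growth inhibition of human OVCAR-3 cells, determined by a cell viability assay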
# Assay: cells
# Assay type: functional, cell-based
# Settings: Homo sapiens
# Description: SANGER: Inhibition of human OVCAR-3 cell growth in a cell viability assay.
row,Structure (SMILES),IC50 [µM]
1,CC1=C(/C=C/C(C)=C/C=C/C(C)=C/C(=O)O)C(C)(C)CCC1 [TRETINOIN],> 10

# Tested on: AU565;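 further: cell viability assay measuring growth inhibition of human AU565 cells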
# Assay: cells
# Assay type: functional, cell-based
# Settings: Homo sapiens
# Description: SANGER: Inhibition of human AU565 cell growth in a cell viability assay.
row,Structure (SMILES),IC50 [µM]
1,CC1=C(/C=C/C(C)=C/C=C/C(C)=C/C(=O)O)C(C)(C)CCC1 [TRETINOIN],> 10

# Tested on: MCF7;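 further: growth inhibition of human MCF7 cells, read out with a cell viability assay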
# Assay: cells
# Assay type: functional, cell-based
# Settings: Homo sapiens
# Description: SANGER: Inhibition of human MCF7 cell growth in a cell viability assay.
row,Structure (SMILES),IC50 [µM]
1,CC1=C(/C=C/C(C)=C/C=C/C(C)=C/C(=O)O)C(C)(C)CCC1 [TRETINOIN],> 10

# Tested on: LU-135
# Assay: cells
# Assay type: functional, cell-based
# Settings: Homo sapiens
# Description: SANGER: Inhibition of human LU-135 cell growth in a cell viability assay.
row,Structure (SMILES),IC50 [µM]
1,CC1=C(/C=C/C(C)=C/C=C/C(C)=C/C(=O)O)C(C)(C)CCC1 [TRETINOIN],> 10

# Tested on: SW837;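 further: growth inhibition of SW837 cells, determined with a cell viability assay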
# Assay: cells
# Assay type: functional, cell-based
# Settings: Homo sapiens
# Description: SANGER: Inhibition of human SW837 cell growth in a cell viability assay.
row,Structure (SMILES),IC50 [µM]
1,CC1=C(/C=C/C(C)=C/C=C/C(C)=C/C(=O)O)C(C)(C)CCC1 [TRETINOIN],> 10
